Key:
Assay in all cases: biochemical
Assay type in all cases: biochemical
382 unique human kinases [1] = biological target: T1, 382 unique human kinases (Homo sapiens, UniProt Q6P3R8); details: NEK5, 10 uM; for remaining activity at 10 µM: read-out: % Enzyme Activity (relative to DMSO controls)
T1 construct: purchased Reaction Biology (HotSpot contract assay)
T1 sequence (Q6P3R8 1-708): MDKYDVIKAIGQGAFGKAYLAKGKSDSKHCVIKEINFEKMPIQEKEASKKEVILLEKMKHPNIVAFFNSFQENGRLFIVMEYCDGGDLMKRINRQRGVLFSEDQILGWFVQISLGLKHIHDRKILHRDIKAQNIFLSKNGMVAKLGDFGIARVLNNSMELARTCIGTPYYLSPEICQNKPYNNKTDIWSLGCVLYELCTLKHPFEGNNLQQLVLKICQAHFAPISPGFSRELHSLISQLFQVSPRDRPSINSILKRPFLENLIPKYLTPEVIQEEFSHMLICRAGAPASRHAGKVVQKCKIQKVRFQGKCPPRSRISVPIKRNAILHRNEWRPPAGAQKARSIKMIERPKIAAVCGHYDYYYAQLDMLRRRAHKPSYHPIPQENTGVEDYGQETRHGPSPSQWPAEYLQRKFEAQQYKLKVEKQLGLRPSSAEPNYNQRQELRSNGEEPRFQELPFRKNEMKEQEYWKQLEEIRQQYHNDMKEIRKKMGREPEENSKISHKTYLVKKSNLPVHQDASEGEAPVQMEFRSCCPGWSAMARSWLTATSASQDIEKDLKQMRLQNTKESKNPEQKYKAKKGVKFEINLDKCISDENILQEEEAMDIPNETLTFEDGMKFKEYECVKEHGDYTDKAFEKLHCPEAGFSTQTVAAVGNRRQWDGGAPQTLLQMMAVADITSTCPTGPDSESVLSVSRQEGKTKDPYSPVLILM

382 unique human kinases [2] = biological target: T2, 382 unique human kinases (Homo sapiens, UniProt Q9P2K8); details: kinase EIF2AK4, compound 10 uM; for remaining activity at 10 µM: read-out: % Enzyme Activity (relative to DMSO controls)
T2 construct: purchased Reaction Biology (HotSpot contract assay)

382 unique human kinases [3] = biological target: T3, 382 unique human kinases (Homo sapiens, UniProt Q8NG66); details: NEK11, compound at 10 uM, duplicate values; for remaining activity at 10 µM: read-out: % Enzyme Activity (relative to DMSO controls)
T3 construct: purchased Reaction Biology (HotSpot contract assay)
T3 sequence (Q8NG66 1-645): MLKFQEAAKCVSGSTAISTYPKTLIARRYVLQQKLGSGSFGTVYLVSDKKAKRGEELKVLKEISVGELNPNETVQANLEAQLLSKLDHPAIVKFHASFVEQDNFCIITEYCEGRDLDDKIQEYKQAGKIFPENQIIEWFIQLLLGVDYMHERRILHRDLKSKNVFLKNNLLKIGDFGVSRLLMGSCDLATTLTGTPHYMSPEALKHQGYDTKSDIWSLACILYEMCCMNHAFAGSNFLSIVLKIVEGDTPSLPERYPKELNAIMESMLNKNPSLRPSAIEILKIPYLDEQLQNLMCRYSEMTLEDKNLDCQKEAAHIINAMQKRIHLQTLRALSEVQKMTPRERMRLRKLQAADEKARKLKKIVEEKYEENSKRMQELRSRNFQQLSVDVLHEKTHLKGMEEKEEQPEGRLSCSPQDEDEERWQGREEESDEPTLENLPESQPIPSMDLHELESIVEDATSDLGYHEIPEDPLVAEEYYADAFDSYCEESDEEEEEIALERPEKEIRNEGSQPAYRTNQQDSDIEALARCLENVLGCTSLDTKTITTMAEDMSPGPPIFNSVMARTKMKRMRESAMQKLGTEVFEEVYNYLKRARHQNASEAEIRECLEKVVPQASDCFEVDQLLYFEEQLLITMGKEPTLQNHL

382 unique human kinases [4] = biological target: T4, 382 unique human kinases (Homo sapiens, UniProt Q8IU85); details: kinase CAMK1d, compound 10 uM; for remaining activity at 10 µM: read-out: % Enzyme Activity (relative to DMSO controls)
T4 construct: purchased Reaction Biology (HotSpot contract assay)

382 unique human kinases [5] = biological target: T5, 382 unique human kinases (Homo sapiens, UniProt Q5TCY1); details: TTBK1, 10 uM; for remaining activity at 10 µM: read-out: % Enzyme Activity (relative to DMSO controls)
T5 construct: purchased Reaction Biology (HotSpot contract assay)

382 unique human kinases [6] = biological target: T6, 382 unique human kinases (Homo sapiens, UniProt P10721, D816F); details: c-Kit (D816F), [ATP] 20 µM, compound 10 uM; for remaining activity at 10 µM: read-out: % Enzyme Activity (relative to DMSO controls)
T6 construct: purchased Reaction Biology (HotSpot contract assay)

382 unique human kinases [7] = biological target: T7, 382 unique human kinases (Homo sapiens, UniProt O15111); details: IKKa/CHUK, 10 uM; for remaining activity at 10 µM: read-out: % Enzyme Activity (relative to DMSO controls)
T7 construct: purchased Reaction Biology (HotSpot contract assay)
T7 sequence (O15111 1-745): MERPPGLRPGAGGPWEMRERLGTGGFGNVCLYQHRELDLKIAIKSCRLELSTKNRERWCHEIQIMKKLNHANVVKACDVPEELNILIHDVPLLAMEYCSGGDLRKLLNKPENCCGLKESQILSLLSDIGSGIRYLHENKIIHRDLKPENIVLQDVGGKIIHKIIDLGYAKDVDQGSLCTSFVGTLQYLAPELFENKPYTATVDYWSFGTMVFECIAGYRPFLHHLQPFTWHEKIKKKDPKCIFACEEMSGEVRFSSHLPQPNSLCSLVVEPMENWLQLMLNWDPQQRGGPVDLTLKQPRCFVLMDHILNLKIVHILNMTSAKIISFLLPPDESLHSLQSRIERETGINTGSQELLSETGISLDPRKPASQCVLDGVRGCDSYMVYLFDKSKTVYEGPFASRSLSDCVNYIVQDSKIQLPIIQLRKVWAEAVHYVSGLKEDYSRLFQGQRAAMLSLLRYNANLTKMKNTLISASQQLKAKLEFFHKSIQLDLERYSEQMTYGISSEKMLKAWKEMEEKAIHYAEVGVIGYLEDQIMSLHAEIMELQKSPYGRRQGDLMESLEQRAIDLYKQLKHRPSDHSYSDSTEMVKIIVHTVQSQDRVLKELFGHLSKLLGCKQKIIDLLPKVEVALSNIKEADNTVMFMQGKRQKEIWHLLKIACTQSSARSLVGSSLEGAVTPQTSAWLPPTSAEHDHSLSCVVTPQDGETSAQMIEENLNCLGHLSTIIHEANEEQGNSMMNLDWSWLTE

382 unique human kinases [8] = biological target: T8, 382 unique human kinases (Homo sapiens, UniProt Q16539, T106M); details: P38a (T106M), 10 uM; for remaining activity at 10 µM: read-out: % Enzyme Activity (relative to DMSO controls)
T8 construct: purchased Reaction Biology (HotSpot contract assay)

382 unique human kinases [9] = biological target: T9, 382 unique human kinases (Homo sapiens, UniProt Q13464); details: ROCK1, 10 uM; for remaining activity at 10 µM: read-out: % Enzyme Activity (relative to DMSO controls)
T9 construct: purchased Reaction Biology (HotSpot contract assay)

382 unique human kinases [10] = biological target: T10, 382 unique human kinases (Homo sapiens, UniProt P27448); details: MARK3, 10 uM; for remaining activity at 10 µM: read-out: % Enzyme Activity (relative to DMSO controls)
T10 construct: purchased Reaction Biology (HotSpot contract assay)
T10 sequence (P27448 whole entry): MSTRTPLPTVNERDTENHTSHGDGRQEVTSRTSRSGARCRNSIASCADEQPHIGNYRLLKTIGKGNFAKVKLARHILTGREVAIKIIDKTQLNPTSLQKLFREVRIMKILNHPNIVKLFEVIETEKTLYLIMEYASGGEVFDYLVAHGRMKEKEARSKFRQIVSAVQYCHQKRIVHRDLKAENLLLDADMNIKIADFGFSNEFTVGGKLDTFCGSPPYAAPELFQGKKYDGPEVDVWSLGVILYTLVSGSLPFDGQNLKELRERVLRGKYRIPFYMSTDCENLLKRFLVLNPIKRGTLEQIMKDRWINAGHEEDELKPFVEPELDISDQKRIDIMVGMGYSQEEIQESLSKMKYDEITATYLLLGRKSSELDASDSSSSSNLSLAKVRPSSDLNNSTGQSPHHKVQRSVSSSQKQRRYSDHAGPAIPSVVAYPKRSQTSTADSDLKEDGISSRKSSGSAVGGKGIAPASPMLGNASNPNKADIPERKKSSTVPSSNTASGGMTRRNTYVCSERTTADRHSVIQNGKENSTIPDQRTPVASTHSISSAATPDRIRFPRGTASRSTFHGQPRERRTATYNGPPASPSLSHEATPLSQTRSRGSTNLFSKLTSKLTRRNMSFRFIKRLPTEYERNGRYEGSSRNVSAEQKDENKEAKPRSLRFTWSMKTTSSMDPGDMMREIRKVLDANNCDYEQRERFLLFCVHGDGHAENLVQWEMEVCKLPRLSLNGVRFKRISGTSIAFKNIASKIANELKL

T8 sequence (Q16539 whole entry T106M): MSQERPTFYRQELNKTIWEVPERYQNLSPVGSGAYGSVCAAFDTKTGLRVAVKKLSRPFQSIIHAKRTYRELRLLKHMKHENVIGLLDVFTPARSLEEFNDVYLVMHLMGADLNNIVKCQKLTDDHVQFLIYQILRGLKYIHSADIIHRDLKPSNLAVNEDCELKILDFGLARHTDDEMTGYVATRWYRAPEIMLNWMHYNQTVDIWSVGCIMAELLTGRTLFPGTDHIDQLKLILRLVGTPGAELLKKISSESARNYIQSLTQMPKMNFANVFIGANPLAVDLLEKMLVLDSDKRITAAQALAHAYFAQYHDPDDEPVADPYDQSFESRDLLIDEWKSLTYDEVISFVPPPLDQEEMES
T9 sequence (Q13464 whole entry): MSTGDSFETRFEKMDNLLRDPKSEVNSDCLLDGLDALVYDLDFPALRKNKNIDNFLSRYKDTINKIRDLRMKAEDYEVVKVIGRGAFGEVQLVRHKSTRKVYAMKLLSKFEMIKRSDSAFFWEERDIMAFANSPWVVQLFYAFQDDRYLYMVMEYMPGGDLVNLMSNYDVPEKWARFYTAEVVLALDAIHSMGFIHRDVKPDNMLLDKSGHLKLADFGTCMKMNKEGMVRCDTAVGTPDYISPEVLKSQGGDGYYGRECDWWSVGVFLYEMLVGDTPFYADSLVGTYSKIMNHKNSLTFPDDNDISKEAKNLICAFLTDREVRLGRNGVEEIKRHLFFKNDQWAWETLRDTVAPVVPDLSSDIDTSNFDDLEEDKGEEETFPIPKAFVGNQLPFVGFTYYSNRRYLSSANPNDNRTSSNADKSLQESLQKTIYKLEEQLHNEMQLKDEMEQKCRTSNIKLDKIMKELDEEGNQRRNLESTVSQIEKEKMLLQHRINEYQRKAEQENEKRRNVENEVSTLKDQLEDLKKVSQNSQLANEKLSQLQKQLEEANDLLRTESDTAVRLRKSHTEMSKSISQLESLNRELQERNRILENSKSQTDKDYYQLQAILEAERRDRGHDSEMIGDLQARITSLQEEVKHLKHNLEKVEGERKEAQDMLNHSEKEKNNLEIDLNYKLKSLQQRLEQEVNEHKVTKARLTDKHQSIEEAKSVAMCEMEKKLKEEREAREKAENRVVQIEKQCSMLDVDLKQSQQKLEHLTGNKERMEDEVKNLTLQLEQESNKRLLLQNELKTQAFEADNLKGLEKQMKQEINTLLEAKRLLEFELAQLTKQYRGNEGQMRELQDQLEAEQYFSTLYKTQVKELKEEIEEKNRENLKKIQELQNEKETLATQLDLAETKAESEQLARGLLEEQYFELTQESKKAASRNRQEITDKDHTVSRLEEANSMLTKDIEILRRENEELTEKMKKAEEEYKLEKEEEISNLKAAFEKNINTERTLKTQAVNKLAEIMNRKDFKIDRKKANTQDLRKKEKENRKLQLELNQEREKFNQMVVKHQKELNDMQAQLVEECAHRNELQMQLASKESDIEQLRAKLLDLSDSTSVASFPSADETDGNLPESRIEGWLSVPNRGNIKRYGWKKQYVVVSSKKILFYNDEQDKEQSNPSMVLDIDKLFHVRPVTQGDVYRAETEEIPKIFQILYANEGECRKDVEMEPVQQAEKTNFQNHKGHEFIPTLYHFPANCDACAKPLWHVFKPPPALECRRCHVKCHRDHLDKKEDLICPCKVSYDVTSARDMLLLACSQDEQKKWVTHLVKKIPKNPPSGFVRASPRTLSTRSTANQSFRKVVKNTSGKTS
T5 sequence (Q5TCY1 whole entry): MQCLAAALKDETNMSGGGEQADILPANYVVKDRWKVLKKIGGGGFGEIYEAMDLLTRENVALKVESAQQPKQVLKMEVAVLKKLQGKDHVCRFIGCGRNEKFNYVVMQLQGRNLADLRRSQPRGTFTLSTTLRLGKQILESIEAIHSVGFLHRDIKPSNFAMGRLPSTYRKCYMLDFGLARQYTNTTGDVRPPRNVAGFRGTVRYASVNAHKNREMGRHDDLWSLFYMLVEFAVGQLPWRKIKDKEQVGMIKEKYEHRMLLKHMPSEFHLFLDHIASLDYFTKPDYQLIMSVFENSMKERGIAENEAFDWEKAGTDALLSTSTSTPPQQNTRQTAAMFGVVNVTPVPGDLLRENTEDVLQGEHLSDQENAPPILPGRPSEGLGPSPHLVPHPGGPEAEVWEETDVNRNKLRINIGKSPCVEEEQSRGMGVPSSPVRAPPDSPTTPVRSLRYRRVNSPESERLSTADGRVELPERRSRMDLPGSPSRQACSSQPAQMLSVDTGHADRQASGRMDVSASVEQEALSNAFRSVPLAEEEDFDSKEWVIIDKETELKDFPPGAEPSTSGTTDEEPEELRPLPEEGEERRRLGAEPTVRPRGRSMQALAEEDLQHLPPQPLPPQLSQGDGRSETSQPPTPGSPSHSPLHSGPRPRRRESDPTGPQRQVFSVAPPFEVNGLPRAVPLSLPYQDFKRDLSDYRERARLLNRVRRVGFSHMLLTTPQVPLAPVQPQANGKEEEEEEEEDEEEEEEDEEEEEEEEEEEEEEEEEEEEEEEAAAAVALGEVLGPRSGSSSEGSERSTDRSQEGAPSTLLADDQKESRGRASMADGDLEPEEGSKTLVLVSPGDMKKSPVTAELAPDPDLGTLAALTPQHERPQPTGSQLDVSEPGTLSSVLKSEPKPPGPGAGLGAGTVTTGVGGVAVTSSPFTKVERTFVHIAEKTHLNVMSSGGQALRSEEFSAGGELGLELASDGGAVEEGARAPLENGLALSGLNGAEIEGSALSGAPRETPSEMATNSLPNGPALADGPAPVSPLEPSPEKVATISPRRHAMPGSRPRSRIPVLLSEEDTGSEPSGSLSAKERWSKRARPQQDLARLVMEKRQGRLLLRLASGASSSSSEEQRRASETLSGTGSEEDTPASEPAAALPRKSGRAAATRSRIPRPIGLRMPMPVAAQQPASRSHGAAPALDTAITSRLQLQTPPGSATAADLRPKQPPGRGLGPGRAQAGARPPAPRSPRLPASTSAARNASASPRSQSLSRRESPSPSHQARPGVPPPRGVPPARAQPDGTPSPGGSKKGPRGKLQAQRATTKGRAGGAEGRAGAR
T4 sequence (Q8IU85 whole entry): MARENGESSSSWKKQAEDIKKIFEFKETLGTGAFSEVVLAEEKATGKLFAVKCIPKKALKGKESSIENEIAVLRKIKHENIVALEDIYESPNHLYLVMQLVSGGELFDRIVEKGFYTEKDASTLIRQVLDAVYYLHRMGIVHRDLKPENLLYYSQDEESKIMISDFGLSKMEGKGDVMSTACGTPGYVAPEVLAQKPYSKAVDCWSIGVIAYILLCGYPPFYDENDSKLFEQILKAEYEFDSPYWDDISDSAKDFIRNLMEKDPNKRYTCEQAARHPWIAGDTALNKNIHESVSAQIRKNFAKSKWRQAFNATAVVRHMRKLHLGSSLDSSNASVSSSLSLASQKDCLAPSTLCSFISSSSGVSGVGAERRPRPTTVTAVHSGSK

Row | SMILES | remaining activity at 10 µM (382 unique human kinases [1]) | remaining activity at 10 µM (382 unique human kinases [2]) | remaining activity at 10 µM (382 unique human kinases [3]) | remaining activity at 10 µM (382 unique human kinases [4]) | % Enzyme Activity (relative to DMSO controls) (382 unique human kinases [5]) | remaining activity at 10 µM (382 unique human kinases [5]) | % Enzyme Activity (relative to DMSO controls) (382 unique human kinases [6]) | remaining activity at 10 µM (382 unique human kinases [6]) | % Enzyme Activity (relative to DMSO controls) (382 unique human kinases [7]) | remaining activity at 10 µM (382 unique human kinases [7]) | % Enzyme Activity (relative to DMSO controls) (382 unique human kinases [8]) | remaining activity at 10 µM (382 unique human kinases [8]) | % Enzyme Activity (relative to DMSO controls) (382 unique human kinases [9]) | remaining activity at 10 µM (382 unique human kinases [9]) | % Enzyme Activity (relative to DMSO controls) (382 unique human kinases [10]) | remaining activity at 10 µM (382 unique human kinases [10]) | % Enzyme Activity (relative to DMSO controls) (382 unique human kinases [1]) | % Enzyme Activity (relative to DMSO controls) (382 unique human kinases [2]) | % Enzyme Activity (relative to DMSO controls) (382 unique human kinases [3]) | % Enzyme Activity (relative to DMSO controls) (382 unique human kinases [4])
1 | CC(C)c1cc(-c2n[nH]c(=O)n2-c2ccc3c(ccn3C)c2)c(O)cc1O [Ganetespib (STA9090)] | 105% | 85.7% | 117% | 86.2% |  |  |  |  |  |  |  |  |  |  |  |  |  |  |  | 
2 | CCNC(=O)c1noc(-c2cc(C(C)C)c(O)cc2O)c1-c1ccc(CN2CCOCC2)cc1 [Luminespib] |  |  |  |  | 109.07% | 109% | 70.41% | 70.9% | 93.54% | 94.7% | 98.91% | 99.8% | 95.76% | 96.4% | 108.05% | 111% |  |  |  | 
3 | CCNC(=O)c1noc(-c2cc(C(C)C)c(O)cc2O)c1-c1ccc(CN2CCOCC2)cc1 [Luminespib (AUY-922)] | 70.4% | 116% | 102% | 101% |  |  |  |  |  |  |  |  |  |  |  |  | 66.42% | 112.88% | 100.52% | 100.18%
4 | CC(C)c1cc(-c2n[nH]c(=O)n2-c2ccc3c(ccn3C)c2)c(O)cc1O [Ganetespib] |  |  |  |  |  | 101% |  | 31% |  | 103% |  | 95.8% |  | 91.4% |  | 100% |  |  |  | 
